Marks after values point to notes of the source that are not given here.
Key:
[1] = system: E. coli cells containing pLDR-MerAB and pLDR-MerAB-3′UTR; assay: Mercury resistance bioassay in bacteria, transformed clones; details: 24 hours at 37° C.
WT tobacco plants [2] = assay: Plant growth and tolerance on Hg-amended soil (dry weight, root length), WT
[3] = system: mer-AB transgenic tobacco shoots and roots; assay: Speciation of Hg by X-ray absorption spectroscopy, transgenic plants; details: 100 μM for 15 d
[4] = system: Untransformed E. coli cells (XL1-blue); assay: Mercury resistance bioassay in bacteria, untransformed control; details: 25 μM HgCl2
Salvia natans = details: 5 μg/ml HgCl2; cited from earlier work
Bacopa monnieri = details: 5 μg/ml HgCl2; cited from earlier work
[5] = system: WT tobacco plant (Petit Havana); assay: Hg accumulation in shoots and roots (CVAAS), WT
[6] = system: transgenic tobacco lines 5A (pLDR-MerAB) and 9 (pLDR-MerAB-3′UTR); assay: Hg accumulation in shoots and roots (CVAAS), transgenic lines
WT tobacco plants [7] = assay: Speciation of Hg by X-ray absorption spectroscopy, WT
[8] = system: chloroplast engineered pLDR-merAB and pLDR-merAB 3′UTR tobacco plants; assay: Plant growth and tolerance on Hg-amended soil (dry weight, root length), transgenic lines
[9] = system: transgenic tobacco lines 5A (pLDR-MerAB) and 9 (pLDR-MerAB-3′UTR)
wild type tobacco plants = details: increase in PMA from 0 to 400 μM in soil, 14 d
[10] = system: leaf disks of transgenic tobacco lines; details: 10 μM PMA
[11] = system: leaf disks of wild type tobacco; details: 10 μM PMA
[12] = system: wild type tobacco plants (Petit Havana); details: 14 days
[13] = system: merAB seedlings (pLDR-MerAB and pLDR-MerAB-3′UTR clones); details: 14 days
Chlorella = assay: Preliminary heavy metal tolerance of wild-type Chlorella; details: preliminary studies

Compound: [Cl][Hg][Cl] [HgCl2, mercuric chloride]
- growth in liquid broth ([1]; 25 and 50 μM HgCl2, LB broth): able to grow
- concentrations of HgCl2 in which cells were able to grow ([1]; solid agar plates, LB): up to 100 μM
- effect on root lengths of WT (WT tobacco plants [2]; concentration in soil from 0 to 300 μM): not significantly affected
- share of accumulated mercury in inorganic Hg-like form (XAS curve fitting) [3]: 77%
- share of accumulated mercury in organic Hg-like form (XAS curve fitting) [3]: 33%
- growth of untransformed cells [4]: unable to grow
- reduction of chlorophyll content (Salvia natans): 26%
- reduction of chlorophyll content (Bacopa monnieri): 35%
- Hg accumulation, Root, WT ([5]; soil amended with 100 μM): 97.04
- Hg accumulation, Shoot, WT ([5]; soil amended with 100 μM): 4.74
- Hg accumulation, Root, WT ([5]; soil amended with 200 μM): 143.8
- Hg accumulation, Shoot, WT ([5]; soil amended with 200 μM): 0.57
- Hg accumulation, Root, WT ([5]; soil amended with 300 μM): 120.1
- Hg accumulation, Shoot, WT ([5]; soil amended with 300 μM): 0.23
- mercury accumulated in shoots of transgenic plants relative to WT ([6]; 100 μM): 3 times
- mercury accumulated in shoots of transgenic plants relative to WT ([6]; 200 μM): 9 times
- Hg accumulation, Root, 5A ([6]; soil amended with 100 μM): 115.1
- Hg accumulation, Root, 9 ([6]; soil amended with 100 μM): 114.8
- Hg accumulation, Shoot, 5A ([6]; soil amended with 100 μM): 7.42
- Hg accumulation, Shoot, 9 ([6]; soil amended with 100 μM): 6.27
- Hg accumulation, Root, 5A ([6]; soil amended with 200 μM): 215.5
- Hg accumulation, Root, 9 ([6]; soil amended with 200 μM): 149.5
- Hg accumulation, Shoot, 5A ([6]; soil amended with 200 μM): 6.4**
- Hg accumulation, Shoot, 9 ([6]; soil amended with 200 μM): 4.5*
- Hg accumulation, Root, 5A ([6]; soil amended with 300 μM): 333.8*
- Hg accumulation, Root, 9 ([6]; soil amended with 300 μM): 377.4
- Hg accumulation, Shoot, 5A ([6]; soil amended with 300 μM): 0.6*
- Hg accumulation, Shoot, 9 ([6]; soil amended with 300 μM): 0.7*
- form of mercury accumulated by WT plants (XAS edge-fitting) (WT tobacco plants [7]): entirely in the form of the mercury supplied
- difference between dry weights of WT and transgenic lines ([8]; concentration from 0 to 300 μM in soil): no significant differences
- effect on root lengths of transgenic lines ([8]; concentration in soil from 0 to 300 μM, compared to WT): increased the roots lengths
- toxicity to merAB-tobacco plants relative to PMA ([8]; supplied at the same concentration): less toxic

Compound: CC(=O)[O-].[Hg+][c]1ccccc1 [PMA, phenylmercuric acetate]
- concentration tolerated when grown in soil ([9]; chloroplast transformed lines): up to 400 μM
- total dry weight of transgenic plants ([9]; increase in PMA until PMA reached 400 μM, soil, 14 d): no decrease in total dry weight
- total dry weight of wild type plants (wild type tobacco plants): decreased progressively
- chlorophyll content of leaf disks [10]: markedly increased
- average reduction of root length (WT tobacco plants [2]; WT, concentration increased from 0 μM to 300 μM): 6 cm
- dry weights of WT shoots and roots (WT tobacco plants [2]; concentration increased from 0 to 300 μM in soil, 15 days): decreased progressively
- chlorophyll content of leaf disks [11]: reduced
- survival of wild type plants ([12]; 50 μM PMA in soil): barely survived
- effect on wild type plants ([12]; 100 and 200 μM PMA in soil): lethal
- survival of merAB seedlings ([13]; 200 μM PMA in soil): survived
- PMA concentration at which seedlings grew well ([13]; soil, both transgenic clones): up to 100 μM
- form of mercury accumulated by WT plants (XAS edge-fitting) (WT tobacco plants [7]): entirely in the form of the mercury supplied
- average reduction of root length ([8]; both transgenic lines, concentration increased from 0 μM to 300 μM): 4 cm
- dry weights of transgenic lines relative to WT ([8]; under PMA treatment): 2 fold

Compound: O=S(=O)([O-])[O-].[Cd+2] [cadmium sulfate]
- level tolerated by Chlorella (Chlorella): at least 200 μM
